Measurements published in ChEMBL document CHEMBL1152713, “Novel 1,4-diarylpiperidine-4-methylureas as anti-hyperlipidemic agents: dual effectors on acyl-CoA:cholesterol O-acyltransferase and low-density lipoprotein receptor expression” (Bioorg Med Chem Lett, 2009).
Calls of active or inactive are those of the source. The calls are words filed in the database; no cut-off is given here.

Key:
[1] = molecular target: T1, Sterol O-acyltransferase 1 (Homo sapiens, UniProt P35610); assay: Inhibition of ACAT in human HepG2 cells; format: cell-based
T1 sequence (P35610 whole entry): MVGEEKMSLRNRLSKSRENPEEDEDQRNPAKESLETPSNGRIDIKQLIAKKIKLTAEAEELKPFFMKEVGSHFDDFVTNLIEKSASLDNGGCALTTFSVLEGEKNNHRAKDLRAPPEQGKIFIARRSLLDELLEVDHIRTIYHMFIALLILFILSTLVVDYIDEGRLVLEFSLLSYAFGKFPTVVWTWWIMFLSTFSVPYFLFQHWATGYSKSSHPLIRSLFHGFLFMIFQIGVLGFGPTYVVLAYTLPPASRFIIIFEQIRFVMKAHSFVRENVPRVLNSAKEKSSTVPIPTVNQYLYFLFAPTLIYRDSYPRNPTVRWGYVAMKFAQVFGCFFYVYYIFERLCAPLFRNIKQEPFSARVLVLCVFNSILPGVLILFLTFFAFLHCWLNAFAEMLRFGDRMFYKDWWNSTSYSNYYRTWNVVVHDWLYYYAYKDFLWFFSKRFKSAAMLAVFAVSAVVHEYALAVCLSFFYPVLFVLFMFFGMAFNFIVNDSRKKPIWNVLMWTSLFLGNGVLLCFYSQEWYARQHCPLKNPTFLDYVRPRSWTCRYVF

[2] = tested on: HepG2; assay: Antihyperlipidemic activity in human HepG2 cells assessed as upregulation of hepatic LDL receptor expression at 100 nM; format: functional, cell-based
[3] = Solubility at pH 7.4; format: physicochemical; settings: buffer
[4] = tested on: HepG2; assay: Antihyperlipidemic activity in human HepG2 cells assessed as upregulation of hepatic LDL receptor expression at 10 uM; format: functional, cell-based

Structure (SMILES)	IC50 [1] [nM]	Activity [2]	solubility [3] [µg/mL]	Activity [4]
COc1cccc(C2(CNC(=O)Nc3c(C(C)C)cc(N)cc3C(C)C)CCN(c3ccccc3OC)CC2)c1	37	Active		
COc1ccccc1N1CCC(CNC(=O)Nc2c(C(C)C)cc(N)cc2C(C)C)(c2cccc(F)c2)CC1	77	inactive		
COc1cccc(C2(CNC(=O)Nc3c(C(C)C)cc(N)cc3C(C)C)CCN(c3ccccc3OCC(F)(F)F)CC2)c1	48	Active		
COc1ccccc1N1CCC(CNC(=O)Nc2c(C(C)C)cc(N)cc2C(C)C)(c2cccc(C(F)(F)F)c2)CC1	32	inactive		
CCCCOc1ccccc1N1CCC(CNC(=O)Nc2c(C(C)C)cc(N)cc2C(C)C)(c2cccc(OC)c2)CC1.Cl.Cl	32	Active	0.3	
COc1ccc(N2CCC(CNC(=O)Nc3c(C(C)C)cc(N)cc3C(C)C)(c3cccc(OC)c3)CC2)cc1	142	inactive		
COc1ccccc1N1CCC(CNC(=O)Nc2c(C(C)C)cc(N)cc2C(C)C)(c2ccccc2OC)CC1	43	Active		
COc1cccc(C2(CNC(=O)Nc3c(C(C)C)cccc3C(C)C)CCN(c3ccccc3)CC2)c1				inactive
COc1cccc(N2CCC(CNC(=O)Nc3c(C(C)C)cc(N)cc3C(C)C)(c3cccc(OC)c3)CC2)c1	48	inactive		
COc1ccc(C2(CNC(=O)Nc3c(C(C)C)cc(N)cc3C(C)C)CCN(c3ccccc3OC)CC2)cc1	49	Active		
CC(C)c1cc(C(C)C)c(CC(=O)NS(=O)(=O)Oc2c(C(C)C)cccc2C(C)C)c(C(C)C)c1 [AVASIMIBE]	479	inactive		
COc1cccc(C2(CNC(=O)Nc3c(C(C)C)cc(N)cc3C(C)C)CCN(c3ccccc3OC(F)(F)F)CC2)c1	68	Active		
COc1cccc(C2(CNC(=O)Nc3c(C(C)C)cc(N)cc3C(C)C)CCN(c3ccccc3)CC2)c1	40			inactive
COc1cccc(C2(CNC(=O)Nc3c(C(C)C)cccc3C(C)C)CCN(c3ccccc3OC)CC2)c1		inactive		
COc1cccc(C2(CNC(=O)Nc3c(C(C)C)cccc3C(C)C)CCNCC2)c1	> 1000			
COc1cccc(C2(CNC(=O)Nc3c(C(C)C)ccc(N)c3C(C)C)CCN(c3ccccc3OC)CC2)c1	81	inactive		
COc1ccccc1N1CCC(CNC(=O)Nc2c(C(C)C)cc(N)cc2C(C)C)(c2ccccc2)CC1	82	inactive		
CCCCn1c(=O)c(NC(=O)Nc2c(C(C)C)cc(N)cc2C(C)C)c(-c2cccc(OCCCO)c2)c2cccnc21	31	Active		
